Experimental data: US20260042764A1, “COMPOSITIONS AND METHODS FOR INHIBITION OF KRAS” (TheRas, Inc., priority 2022, published 2026)

What follows are compounds tested on HT1080 cells (NRAS) (assay: 3D Cell viability assay in HT1080 cells (Biological Example 6)). Settings: Homo sapiens, HT-1080; HT1080 (NRAS) spheroids, 72 hours.
Type: cell-based
Procedure: (§1) Biological Example 6: 3D Cell viability assay in AsPC-1, SW1900, HPAC, Capan-2, RKN, H358, HCT116, KP-2, H1573, A549, MKN1, and HT1080 cells
(§2) The inhibition of cellular viability as a result of test compound treatment in a spheroid assay was measured using the CellTiter-Glow 3D Cell Viability Assay (Promega).
(§3) On Day 1, 1000 cells per well were seeded in 150 μL of complete growth media supplemented with 10% fetal bovine serum (FBS) and incubated at 37° C., in the presence of 5% CO2 in 96-well ultra-low attachment microplates (Corning) for 48 hours undisturbed to allow spheroids to form.
(§4) Following spheroid formation, cells were treated with compounds diluted in DMSO at 0.25% final DMSO concentration. Compounds were dosed in a 9-point concentration curve with three-fold dilution between concentrations. Cells were incubated in the presence of compound for 72 hours at 37° C., in the presence of 5% CO2.
(§5) Following this incubation period, the kit-provided CTG reagent was allowed to equilibrate for 30 minutes at room temperature, 150 μL of equilibrated CTG reagent was added to each well, and the plate was sealed before shaking at 250 rpm for 10 minutes at room temperature to lyse the cells, 150 μL of lysate per well was transferred to a 96-well plate and luminescence was read on a CLARIOstar plate reader.
(§6) Data was imported into the Prism software package (Graphpad) and EC50 values were calculated using the log (inhibitor) vs, response—variable slope (Four parameters) model.
`CN(C)c1nc(OC[C@@]23CCCN2C[C@H](F)C3)nc2c(F)c(-c3ccc(F)c4sc(N)c(C#N)c34)c(C(F)(F)F)cc12` [Compound 153] gave an IC50 greater than 1000 nM.

The compounds below were run against T1, Avi-KRAS WT (2-169) GTP/RAF1 RBD-3xFLAG (51-131) (Homo sapiens, UniProt P01116) (assay: Raf1-KRAS WT-GTP disruption HTRF assay (Biological Example 3)). Settings: KRAS WT, GTP-loaded.
T1 construct: Avi-KRAS WT (2-169)
T1 sequence (P01116 2-169 isoform P01116-2): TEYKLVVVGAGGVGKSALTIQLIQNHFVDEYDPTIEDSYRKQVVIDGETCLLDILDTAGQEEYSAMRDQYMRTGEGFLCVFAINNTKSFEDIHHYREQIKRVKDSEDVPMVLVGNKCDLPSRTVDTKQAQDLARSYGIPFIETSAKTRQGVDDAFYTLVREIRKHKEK
Type: binding
Procedure, shortened: (§7)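 HTRF PPI read-out (ex 320 nm, em 615 nm) after 1 h RT incubation with shaking; data as % activity vs DMSO (100%), IC50 from curve fit. Complex 50 nM, RBD reagent 75 nM; compound 30-0.005 μM, 3-fold.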
`N#Cc1c(N)sc2c(F)ccc(-c3c(C(F)(F)F)cc4c(N5CCCC(c6cccnc6)C5)nc(OC[C@@]56CCCN5C[C@H](F)C6)nc4c3F)c12` (stereo partly drawn) [Compound 944] showed an IC50 greater than 10000 nM.
`CCN(c1nc(OC[C@@]23CCCN2C[C@H](F)C3)nc2c(F)c(-c3ccc(F)c4sc(N)c(C#N)c34)c(C(F)(F)F)cc12)[C@@H]1CCN(c2ccccn2)C1` [Compound 945] was tested, and the IC50 was greater than 10000 nM.

Each compound was assayed against T2, Avi-KRAS G12C (2-169) GTP/RAF1 RBD-3xFLAG (51-131) (Homo sapiens, UniProt P01116, G12C) (assay: Raf1-KRAS G12C-GTP disruption HTRF assay (Biological Example 3)). Settings: KRAS G12C, GTP-loaded.
T2 construct: Avi-KRAS G12C (2-169)
T2 sequence (P01116 2-169 isoform P01116-2 G12C): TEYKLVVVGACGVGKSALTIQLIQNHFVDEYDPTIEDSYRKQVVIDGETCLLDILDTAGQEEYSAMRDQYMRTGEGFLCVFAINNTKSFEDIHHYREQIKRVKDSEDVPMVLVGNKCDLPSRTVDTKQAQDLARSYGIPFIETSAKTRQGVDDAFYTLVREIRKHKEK
Type: binding
Procedure, shortened: as §7
`N#Cc1c(N)sc2c(F)ccc(-c3c(C(F)(F)F)cc4c(N5CCCC(c6cccnc6)C5)nc(OC[C@@]56CCCN5C[C@H](F)C6)nc4c3F)c12` (stereo partly drawn) [Compound 944] showed an IC50 greater than 10000 nM.
Compound `CCN(c1nc(OC[C@@]23CCCN2C[C@H](F)C3)nc2c(F)c(-c3ccc(F)c4sc(N)c(C#N)c34)c(C(F)(F)F)cc12)[C@@H]1CCN(c2ccccn2)C1` [Compound 945] has an IC50 greater than 10000 nM.

The compounds below were run against T3, Avi-KRAS G12D (2-169) GTP/RAF1 RBD-3xFLAG (51-131) (Homo sapiens, UniProt P01116, G12D) (assay: Raf1-KRAS G12D-GTP disruption HTRF assay (Biological Example 3)). Settings: KRAS G12D, GTP-loaded.
T3 construct: Avi-KRAS G12D (2-169)
T3 sequence (P01116 2-169 isoform P01116-2 G12D): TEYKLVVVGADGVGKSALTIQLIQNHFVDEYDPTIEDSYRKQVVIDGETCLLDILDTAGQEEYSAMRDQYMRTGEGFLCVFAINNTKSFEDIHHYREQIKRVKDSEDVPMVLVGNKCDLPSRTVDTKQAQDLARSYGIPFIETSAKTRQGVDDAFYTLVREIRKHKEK
Type: binding
Procedure, shortened: as §7
In the case of `N#Cc1c(N)sc2c(F)ccc(-c3c(C(F)(F)F)cc4c(N5CCCC(c6cccnc6)C5)nc(OC[C@@]56CCCN5C[C@H](F)C6)nc4c3F)c12` (stereo partly drawn) [Compound 944], the IC50 is reported as greater than 10000 nM.
In the case of `CCN(c1nc(OC[C@@]23CCCN2C[C@H](F)C3)nc2c(F)c(-c3ccc(F)c4sc(N)c(C#N)c34)c(C(F)(F)F)cc12)[C@@H]1CCN(c2ccccn2)C1` [Compound 945], the IC50 is reported as 1000 to 10000 nM.

What follows are compounds tested on HCT116 cells (KRAS G13D) (assay: 3D Cell viability assay in HCT116 cells (Biological Example 6)). Settings: Homo sapiens, HCT-116; HCT116 (KRAS G13D) spheroids, 72 hours.
Type: cell-based
Procedure: as §1, §2, §3, §4, §5, §6
In the case of `CN(C)c1nc(OC[C@@]23CCCN2C[C@H](F)C3)nc2c(F)c(-c3ccc(F)c4sc(N)c(C#N)c34)c(C(F)(F)F)cc12` [Compound 153], the IC50 is reported as 100 to 1000 nM.

Each compound was assayed against T4, Avi-KRAS G12V (2-169) GTP/RAF1 RBD-3xFLAG (51-131) (Homo sapiens, UniProt P01116, G12V) (assay: Raf1-KRAS G12V-GTP disruption HTRF assay (Biological Example 3)). Settings: KRAS G12V, GTP-loaded.
T4 construct: Avi-KRAS G12V (2-169)
T4 sequence (P01116 2-169 isoform P01116-2 G12V): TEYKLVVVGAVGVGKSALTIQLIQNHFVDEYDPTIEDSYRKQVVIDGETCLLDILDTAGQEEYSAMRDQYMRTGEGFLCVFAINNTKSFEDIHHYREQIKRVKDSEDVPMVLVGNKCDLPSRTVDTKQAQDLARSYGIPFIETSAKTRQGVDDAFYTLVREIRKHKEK
Type: binding
Procedure, shortened: as §7
`N#Cc1c(N)sc2c(F)ccc(-c3c(C(F)(F)F)cc4c(N5CCCC(c6cccnc6)C5)nc(OC[C@@]56CCCN5C[C@H](F)C6)nc4c3F)c12` (stereo partly drawn) [Compound 944] was tested, and the IC50 was greater than 10000 nM.
`CCN(c1nc(OC[C@@]23CCCN2C[C@H](F)C3)nc2c(F)c(-c3ccc(F)c4sc(N)c(C#N)c34)c(C(F)(F)F)cc12)[C@@H]1CCN(c2ccccn2)C1` [Compound 945] gave an IC50 greater than 10000 nM.

The compounds below were run on SW620 cells (KRAS G12V) (assay: Cell-based pERK HTRF assay in SW620 cell (Biological Example 4)). Settings: Homo sapiens, SW-620, SW620 (KRAS G12V) cells.
Procedure, shortened: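 SW620 cells were treated for 4 h with compound in a 9-point half-log series from 1 μM top (0.25% DMSO), then lysed. Phospho-ERK was detected by HTRF with d2 and Eu cryptate antibodies after 4–24 h at room temperature, read at 615 nm emission.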
Compound `N#Cc1c(N)sc2c(F)ccc(-c3c(C(F)(F)F)cc4c(N5CCCC(c6cccnc6)C5)nc(OC[C@@]56CCCN5C[C@H](F)C6)nc4c3F)c12` (stereo partly drawn) [Compound 944] has an IC50 of 100 to 1000 nM.
With `CCN(c1nc(OC[C@@]23CCCN2C[C@H](F)C3)nc2c(F)c(-c3ccc(F)c4sc(N)c(C#N)c34)c(C(F)(F)F)cc12)[C@@H]1CCN(c2ccccn2)C1` [Compound 945] the IC50 was less than 100 nM.

What follows are compounds tested on GP2d cells (KRAS G12D) (assay: Cell-based pERK HTRF assay in GP2d cell (Biological Example 2)). Settings: GP2d, GP2d (KRAS G12D) cells.
Procedure, shortened: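 Phospho-ERK is measured by HTRF following a 60 min compound exposure at 0.25% DMSO, with a 9-point half-log curve topping at 1 μM or 100 nM.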
Work on `N#Cc1c(N)sc2c(F)ccc(-c3c(C(F)(F)F)cc4c(N5CCCC(c6cccnc6)C5)nc(OC[C@@]56CCCN5C[C@H](F)C6)nc4c3F)c12` (stereo partly drawn) [Compound 944] yielded an IC50 of 100 to 1000 nM.
In the case of `CCN(c1nc(OC[C@@]23CCCN2C[C@H](F)C3)nc2c(F)c(-c3ccc(F)c4sc(N)c(C#N)c34)c(C(F)(F)F)cc12)[C@@H]1CCN(c2ccccn2)C1` [Compound 945], the IC50 is reported as less than 100 nM.

Same assay, conditions: GP2d, GP2d (KRAS G12D) cells, pERK HTRF
For `CN(C)c1nc(OC[C@@]23CCCN2C[C@H](F)C3)nc2c(F)c(-c3ccc(F)c4sc(N)c(C#N)c34)c(C(F)(F)F)cc12` [Compound 153], the IC50 was less than 100 nM.

The compounds below were run on A549 cells (KRAS G12S) (assay: 3D Cell viability assay in A549 cells (Biological Example 6)). Settings: Homo sapiens; A549 (KRAS G12S) spheroids, 72 hours.
Type: cell-based
Procedure: as §1, §2, §3, §4, §5, §6
`CN(C)c1nc(OC[C@@]23CCCN2C[C@H](F)C3)nc2c(F)c(-c3ccc(F)c4sc(N)c(C#N)c34)c(C(F)(F)F)cc12` [Compound 153] was tested, and the IC50 was no more than 100 nM.

These compounds were tested on SW1900 cells (KRAS G12D) (assay: 3D Cell viability assay in SW1900 cells (Biological Example 6)). Settings: Homo sapiens; SW1990 (text: SW1900, KRAS G12D) spheroids, 72 hours.
Type: cell-based
Procedure: as §1, §2, §3, §4, §5, §6
In the case of `CN(C)c1nc(OC[C@@]23CCCN2C[C@H](F)C3)nc2c(F)c(-c3ccc(F)c4sc(N)c(C#N)c34)c(C(F)(F)F)cc12` [Compound 153], the IC50 is reported as 100 to 1000 nM.

These compounds were tested against T5, Avi-KRAS WT (1-169) GppNHp/RAF1 RBD-3xFLAG (52-151) (Homo sapiens, UniProt P01116) (assay: Raf1-KRAS WT-GppNHP disruption HTRF assay (Biological Example 1)). Settings: KRAS WT, GppNHp-loaded; Table 11.
T5 construct: Avi-KRAS WT (1-169)
T5 sequence (P01116 1-169 isoform P01116-2): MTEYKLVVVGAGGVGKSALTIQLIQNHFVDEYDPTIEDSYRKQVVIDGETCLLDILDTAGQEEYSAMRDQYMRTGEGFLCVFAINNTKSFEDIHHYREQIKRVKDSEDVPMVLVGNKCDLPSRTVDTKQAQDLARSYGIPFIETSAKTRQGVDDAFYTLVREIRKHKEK
Type: binding
Procedure, shortened: (§8)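 First, protein mix in Tris pH 7.5 buffer with NaCl, MgCl2, BSA, Tween and 10% DMSO is incubated 1 h at room temperature. Next, reagent mix is added and incubated a further 1 h at room temperature. Finally, HTRF is read and activity normalized to DMSO.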
Compound `CN(C)c1nc(OC[C@@]23CCCN2C[C@H](F)C3)nc2c(F)c(-c3ccc(F)c4sc(N)c(C#N)c34)c(C(F)(F)F)cc12` [Compound 153] has an IC50 of 100 to 1000 nM.

These compounds were tested against T6, Avi-KRAS G12R (1-169) GppNHp/RAF1 RBD-3xFLAG (52-151) (Homo sapiens, UniProt P01116, G12R) (assay: Raf1-KRAS G12R-GppNHP disruption HTRF assay (Biological Example 1)). Settings: KRAS G12R, GppNHp-loaded; Table 11.
T6 construct: Avi-KRAS G12R (1-169)
T6 sequence (P01116 1-169 isoform P01116-2 G12R): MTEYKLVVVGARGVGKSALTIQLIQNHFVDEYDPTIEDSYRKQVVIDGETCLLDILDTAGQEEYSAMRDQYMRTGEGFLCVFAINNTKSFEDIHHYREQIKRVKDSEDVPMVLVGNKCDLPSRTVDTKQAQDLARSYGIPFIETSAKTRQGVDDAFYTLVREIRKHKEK
Type: binding
Procedure, shortened: as §8
`CN(C)c1nc(OC[C@@]23CCCN2C[C@H](F)C3)nc2c(F)c(-c3ccc(F)c4sc(N)c(C#N)c34)c(C(F)(F)F)cc12` [Compound 153] was tested, and the IC50 was 100 to 1000 nM.

These compounds were tested on H1573 cells (KRAS G12A) (assay: 3D Cell viability assay in H1573 cells (Biological Example 6)). Settings: Homo sapiens, NCI-H1573; H1573 (KRAS G12A) spheroids, 72 hours.
Type: cell-based
Procedure: as §1, §2, §3, §4, §5, §6
`CN(C)c1nc(OC[C@@]23CCCN2C[C@H](F)C3)nc2c(F)c(-c3ccc(F)c4sc(N)c(C#N)c34)c(C(F)(F)F)cc12` [Compound 153] showed an IC50 of 100 to 1000 nM.

The compounds below were run on HPAC cells (KRAS G12D) (assay: 3D Cell viability assay in HPAC cells (Biological Example 6)). Settings: Homo sapiens, HPAC, 72 h, HPAC (KRAS G12D) spheroids.
Type: cell-based
Procedure: as §1, §2, §3, §4, §5, §6
For `CN(C)c1nc(OC[C@@]23CCCN2C[C@H](F)C3)nc2c(F)c(-c3ccc(F)c4sc(N)c(C#N)c34)c(C(F)(F)F)cc12` [Compound 153], the IC50 was 100 to 1000 nM.

Each compound was assayed on H358 cells (KRAS G12C) (assay: 3D Cell viability assay in H358 cells (Biological Example 6)). Settings: Homo sapiens, NCI-H358; H358 (KRAS G12C) spheroids, 72 hours.
Type: cell-based
Procedure: as §1, §2, §3, §4, §5, §6
Compound `CN(C)c1nc(OC[C@@]23CCCN2C[C@H](F)C3)nc2c(F)c(-c3ccc(F)c4sc(N)c(C#N)c34)c(C(F)(F)F)cc12` [Compound 153] has an IC50 of no more than 100 nM.

These compounds were tested against T7, Avi-KRAS G12D (1-169) GppNHp/RAF1 RBD-3xFLAG (52-151) (Homo sapiens, UniProt P01116, G12D) (assay: Raf1-KRAS G12D-GppNHP disruption HTRF assay (Biological Example 1)). Settings: KRAS G12D, GppNHp-loaded; Table 11.
T7 construct: Avi-KRAS G12D (1-169)
T7 sequence (P01116 1-169 isoform P01116-2 G12D): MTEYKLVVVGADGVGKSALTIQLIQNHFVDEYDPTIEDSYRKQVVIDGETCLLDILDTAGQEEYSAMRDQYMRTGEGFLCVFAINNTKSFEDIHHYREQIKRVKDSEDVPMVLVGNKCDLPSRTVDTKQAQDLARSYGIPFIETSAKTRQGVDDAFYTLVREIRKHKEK
Type: binding
Procedure, shortened: as §8
With `CN(C)c1nc(OC[C@@]23CCCN2C[C@H](F)C3)nc2c(F)c(-c3ccc(F)c4sc(N)c(C#N)c34)c(C(F)(F)F)cc12` [Compound 153] the IC50 was less than 100 nM.

Each compound was assayed against T8, Avi-KRAS G12V (1-169) GppNHp/RAF1 RBD-3xFLAG (52-151) (Homo sapiens, UniProt P01116, G12V) (assay: Raf1-KRAS G12V-GppNHP disruption HTRF assay (Biological Example 1)). Settings: KRAS G12V, GppNHp-loaded; Table 11.
T8 construct: Avi-KRAS G12V (1-169)
T8 sequence (P01116 1-169 isoform P01116-2 G12V): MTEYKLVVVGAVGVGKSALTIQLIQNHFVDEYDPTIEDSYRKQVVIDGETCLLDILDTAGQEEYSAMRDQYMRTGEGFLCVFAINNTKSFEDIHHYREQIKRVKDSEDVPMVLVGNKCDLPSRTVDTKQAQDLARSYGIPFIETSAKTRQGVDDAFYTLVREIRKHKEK
Type: binding
Procedure, shortened: as §8
`CN(C)c1nc(OC[C@@]23CCCN2C[C@H](F)C3)nc2c(F)c(-c3ccc(F)c4sc(N)c(C#N)c34)c(C(F)(F)F)cc12` [Compound 153] showed an IC50 of 100 to 1000 nM.
